13 substances from US20240247080A1, “GLP1/GIP/NPY2 RECEPTOR TRIPLE AGONISTS” (Boehringer Ingelheim International GmbH, priority 2022, published 2024) can be followed below.

pEC50: −log10 of the molar value. Read-outs that look alike come from different tables or passages of the source. Starred links: 1 amine or outer side, 2 acyl side, 3 side chain; linkers in the order of their positions; H or OH if unused. Non-standard residues stand in square brackets, D forms with d. Groups on a side chain read outwards from the residue. *: point of attachment. C20 diacid = O=C(O)CCCCCCCCCCCCCCCCCCC(=O)*; γGlu = O=C(O)[C@H](CCC(=O)[*:2])N[*:1]; εLys = N[C@@H](CCCCN[*:1])C(=O)[*:2]; hArg = N=C(N)NCCCC[C@H](N)C(=O)O; Tle = CC(C)(C)[C@H](N)C(=O)O; Aib = CC(C)(N)C(=O)O

Assay type in all cases: cell-based
What all share (conditions): CreLuc reporter gene assay

The target of experiment [1] is T1, hGLP1R (Homo sapiens, UniProt P43220).
T1 construct: expressed in transfected cells; host or cells: HEK-293 cells carrying a CRE-luciferase reporter gene
T1 sequence (P43220 24-463): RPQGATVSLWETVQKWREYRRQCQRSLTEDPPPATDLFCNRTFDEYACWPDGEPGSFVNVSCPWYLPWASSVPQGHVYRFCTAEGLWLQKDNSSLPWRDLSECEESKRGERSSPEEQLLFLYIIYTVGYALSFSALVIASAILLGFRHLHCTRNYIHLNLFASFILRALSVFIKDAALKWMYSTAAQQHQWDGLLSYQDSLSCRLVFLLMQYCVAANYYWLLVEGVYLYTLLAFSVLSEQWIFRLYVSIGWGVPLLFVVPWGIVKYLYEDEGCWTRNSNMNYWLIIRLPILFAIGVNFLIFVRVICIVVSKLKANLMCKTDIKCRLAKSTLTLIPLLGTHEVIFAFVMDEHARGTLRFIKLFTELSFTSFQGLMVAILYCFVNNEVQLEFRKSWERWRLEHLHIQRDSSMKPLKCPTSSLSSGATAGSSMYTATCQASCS
As to the kind of experiment: hGLP1R CreLuc reporter gene assay in 0.5% and 100% plasma. The gist of the method:
(§1)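 HEK-293 cells co-expressing GLP-1 or NPY2 receptor and CHO cells expressing GIP receptor, each carrying a CRE-driven luciferase reporter, were stimulated with peptides for 4 hours at 37 °C. Luminescence was read after Bright-Glo addition. EC50 came from 8-point, four-decade curves fitted by variable-slope non-linear regression.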

Experiment [2] deals with T2, hGIPR (Homo sapiens, UniProt P48546).
T2 construct: expressed in transfected cells; host or cells: CHO cells carrying a CRE-luciferase reporter gene
T2 sequence (P48546 22-466): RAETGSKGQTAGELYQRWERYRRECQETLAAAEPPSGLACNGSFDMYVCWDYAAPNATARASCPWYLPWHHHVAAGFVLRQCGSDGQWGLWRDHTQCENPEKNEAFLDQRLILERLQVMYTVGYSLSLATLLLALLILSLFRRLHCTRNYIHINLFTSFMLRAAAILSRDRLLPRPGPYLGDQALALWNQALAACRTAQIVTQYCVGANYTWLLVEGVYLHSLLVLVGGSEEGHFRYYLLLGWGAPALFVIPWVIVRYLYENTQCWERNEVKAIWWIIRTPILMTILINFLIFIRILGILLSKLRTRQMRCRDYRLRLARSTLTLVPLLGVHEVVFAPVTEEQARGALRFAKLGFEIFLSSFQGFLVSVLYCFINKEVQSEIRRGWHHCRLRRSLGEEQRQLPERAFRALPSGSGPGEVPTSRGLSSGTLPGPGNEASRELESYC
As to the kind of experiment: hGIPR CreLuc reporter gene assay in 0.5% and 100% plasma. The gist of the method: as §1

The target of experiment [3] is T3, hNPY2R (Homo sapiens, UniProt P49146).
T3 construct: expressed in transfected cells; host or cells: HEK-293 cells carrying a CRE-luciferase reporter gene
T3 sequence (P49146 1-381): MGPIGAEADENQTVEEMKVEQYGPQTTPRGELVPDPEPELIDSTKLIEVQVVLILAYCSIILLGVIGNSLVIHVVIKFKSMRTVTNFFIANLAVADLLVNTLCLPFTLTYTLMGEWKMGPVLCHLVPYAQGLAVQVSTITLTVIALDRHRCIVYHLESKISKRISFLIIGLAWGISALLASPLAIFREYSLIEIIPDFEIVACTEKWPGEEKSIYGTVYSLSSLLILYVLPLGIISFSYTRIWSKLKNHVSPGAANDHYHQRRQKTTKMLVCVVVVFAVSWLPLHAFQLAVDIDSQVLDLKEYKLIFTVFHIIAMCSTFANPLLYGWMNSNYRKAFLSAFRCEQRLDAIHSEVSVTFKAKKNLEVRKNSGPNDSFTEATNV
Kind of experiment: hNPY2R CreLuc reporter gene assay in 0.5% and 100% plasma. In outline:
as §1

[4] abbreviates: 0.5% human plasma, read-out: hGLP1R 0.5% hP.
Setting [5] is: 0.5% human plasma, read-out: hGIPR 0.5% hP.
[6] abbreviates: 100% human plasma, read-out: hGIPR 100% hP.
Where [7] appears, read: 0.5% human plasma, read-out: hNPY2R 0.5% hP.
The mark [8] stands for this setting: 100% human plasma, read-out: hNPY2R 100% hP.
Setting [9] is: 100% human plasma, read-out: hGLP1R 100% hP.

Take “H-Y[Aib]EGTFTSDYSI[Aib]LEKQAQ[Aib]AFVEWLIK([εLys-γGlu-γGlu-γGlu-γGlu-γGlu-γGlu-C20 diacid])GGPSSGASLR[Aib]YYNWLTRQRY-NH2 [Compound 182, Y-Aib-E-G-T-F-T-S-D-Y-S-I-Aib-L-E-K-Q-A-Q-Aib-A-F-V-E-W-L-I-K(1,3)-G-G-P-S-S-G-A-S-L-R-Aib-Y-Y-N-W-L-T-R-Q-R-Y-NH2.C20DA-gGlu-gGlu-gGlu-gGlu-gGlu-gGlu-eLys(1,2)]”: the pEC50 is 9.89 in experiment [1] (setting [4]), 9.68 in experiment [2] (setting [5]), 8.86 in experiment [2] (setting [6]) and 7.15 in experiment [3] (setting [7]).

As to “H-Y[Aib]EGTFTSDYSI[Aib]LEKQAQ[Aib]AFVEWLIK([εLys-γGlu-γGlu-γGlu-γGlu-γGlu-γGlu-C20 diacid])GGPSSGASLR[Tle]YYNWLTRQRY-NH2 [Compound 119, Y-Aib-E-G-T-F-T-S-D-Y-S-I-Aib-L-E-K-Q-A-Q-Aib-A-F-V-E-W-L-I-K(1,3)-G-G-P-S-S-G-A-S-L-R-Tle-Y-Y-N-W-L-T-R-Q-R-Y-NH2.C20DA-gGlu-gGlu-gGlu-gGlu-gGlu-gGlu-eLys(1,2)]”, the pEC50 in experiment [1] (setting [4]) was 9.59; in experiment [2] (setting [5]), 9.20; in experiment [3] (setting [7]), 7.64.

On to “H-Y[Aib]EGTFTSDYSI[Aib]LEKQAQ[Aib]AFVEWLIK([εLys-γGlu-γGlu-γGlu-γGlu-γGlu-γGlu-C20 diacid])GGPSSGASL[Aib]HYYNWLTRQRY-NH2 [Compound 129, Y-Aib-E-G-T-F-T-S-D-Y-S-I-Aib-L-E-K-Q-A-Q-Aib-A-F-V-E-W-L-I-K(1,3)-G-G-P-S-S-G-A-S-L-Aib-H-Y-Y-N-W-L-T-R-Q-R-Y-NH2.C20DA-gGlu-gGlu-gGlu-gGlu-gGlu-gGlu-eLys(1,2)]”, for which the pEC50 in experiment [1] (setting [4]) is 10.40; in experiment [2] (setting [5]), 10.22; in experiment [2] (setting [6]) it was 9.30; in experiment [3] (setting [7]) it was 7.51; in experiment [3] (setting [8]), 7.06.

Take “H-Y[Aib]EGTFTSDYSI[Aib]LEKQAQ[Aib]AFVEWLIK([εLys-γGlu-γGlu-γGlu-γGlu-γGlu-γGlu-C20 diacid])GGPSSGASVRHYYNWLTRQRY-NH2 [Compound 117, Y-Aib-E-G-T-F-T-S-D-Y-S-I-Aib-L-E-K-Q-A-Q-Aib-A-F-V-E-W-L-I-K(1,3)-GGPSSGASVRHYYNWLTRQRY-NH2.C20DA-gGlu-gGlu-gGlu-gGlu-gGlu-gGlu-eLys(1,2)]”: the pEC50 in experiment [1] (setting [4]) was 9.89; in experiment [2] (setting [5]), 9.85; in experiment [2] (setting [6]), 8.93; in experiment [3] (setting [8]), 7.61.

“H-Y[Aib]EGTFTSDYSI[Aib]LEKQAQ[Aib]AFVEWLIK([εLys-γGlu-γGlu-γGlu-γGlu-γGlu-γGlu-C20 diacid])GGPSSGAS[Aib]RHYYNWLTRQR[dY]-NH2 [Compound 74, Y-Aib-E-G-T-F-T-S-D-Y-S-I-Aib-L-E-K-Q-A-Q-Aib-A-F-V-E-W-L-I-K(1,3)-G-G-P-S-S-G-A-S-Aib-R-H-Y-Y-N-W-L-T-R-Q-R-DTyr-NH2.C20DA-gGlu-gGlu-gGlu-gGlu-gGlu-gGlu-eLys(1,2)]”: the pEC50 in experiment [1] (setting [4]) was 10.10; in experiment [1] (setting [9]), 8.95; in experiment [2] (setting [5]) it was 10.00; in experiment [2] (setting [6]) it was 9.21; in experiment [3] (setting [7]), 7.27.

As to “H-Y[Aib]EGTFTSDYSI[Aib]LEKQAQ[Aib]AFVEWLIK([εLys-γGlu-γGlu-γGlu-γGlu-γGlu-γGlu-C20 diacid])GGPSSGAS[Aib]RHYYNWLT[hArg]QR[dY]-NH2 [Compound 26, Y-Aib-E-G-T-F-T-S-D-Y-S-I-Aib-L-E-K-Q-A-Q-Aib-A-F-V-E-W-L-I-K(1,3)-G-G-P-S-S-G-A-S-Aib-R-H-Y-Y-N-W-L-T-hArg-Q-R-DTyr-NH2.C20DA-gGlu-gGlu-gGlu-gGlu-gGlu-gGlu-eLys(1,2)]”, the pEC50 was 10.15 in experiment [1] (setting [4]); 8.93 in experiment [1] (setting [9]); 10.05 in experiment [2] (setting [5]); 9.15 in experiment [2] (setting [6]); below 7.00 in experiment [3] (setting [7]).

“H-Y[Aib]EGTFTSDYSI[Aib]LEKQAQ[Aib]AFVEWLIK([εLys-γGlu-γGlu-γGlu-γGlu-γGlu-γGlu-C20 diacid])GGPSSGATLRHYYNWLTRQRY-NH2 [Compound 91, Y-Aib-E-G-T-F-T-S-D-Y-S-I-Aib-L-E-K-Q-A-Q-Aib-A-F-V-E-W-L-I-K(1,3)-GGPSSGATLRHYYNWLTRQRY-NH2.C20DA-gGlu-gGlu-gGlu-gGlu-gGlu-gGlu-eLys(1,2)]”: the pEC50 in experiment [1] (setting [4]) is 9.77; in experiment [2] (setting [5]), 9.68; in experiment [2] (setting [6]) it was 8.76; in experiment [3] (setting [7]), 7.79; in experiment [3] (setting [8]), 7.27.

Regarding “H-Y[Aib]EGTFTSDYSI[Aib]LEKQAQ[Aib]AFVEWLIK([εLys-γGlu-γGlu-γGlu-γGlu-γGlu-γGlu-C20 diacid])GGPSSGES[Aib]RHYYNWLTRQRY-NH2 [Compound 49, Y-Aib-E-G-T-F-T-S-D-Y-S-I-Aib-L-E-K-Q-A-Q-Aib-A-F-V-E-W-L-I-K(1,3)-G-G-P-S-S-G-E-S-Aib-R-H-Y-Y-N-W-L-T-R-Q-R-Y-NH2.C20DA-gGlu-gGlu-gGlu-gGlu-gGlu-gGlu-eLys(1,2)]”, the pEC50 in experiment [1] (setting [4]) is 9.92; in experiment [2] (setting [5]), 10.15; in experiment [2] (setting [6]), 8.90; in experiment [3] (setting [7]), 7.90; in experiment [3] (setting [8]) it was 7.43.

With “H-Y[Aib]EGTFTSDYSI[Aib]LEKQAQ[Aib]AFVEWLIK([εLys-γGlu-γGlu-γGlu-γGlu-γGlu-γGlu-C20 diacid])GGPSSGIELRHFLNHLTRQRY-NH2 [Compound 2, Y-Aib-E-G-T-F-T-S-D-Y-S-I-Aib-L-E-K-Q-A-Q-Aib-A-F-V-E-W-L-I-K(1,3)-GGPSSGIELRHFLNHLTRQRY-NH2.C20DA-gGlu-gGlu-gGlu-gGlu-gGlu-gGlu-eLys(1,2)]”, the pEC50 in experiment [1] (setting [4]) is 10.00; in experiment [1] (setting [9]) it was 8.86; in experiment [2] (setting [5]) it was 9.46; in experiment [2] (setting [6]), 8.81; in experiment [3] (setting [7]), below 7.00; in experiment [3] (setting [8]), 6.25.

As to “H-Y[Aib]EGTFTSDYSI[Aib]LEKQAQ[Aib]AFVEWLIK([εLys-γGlu-γGlu-γGlu-γGlu-γGlu-γGlu-C20 diacid])GGPSSGLSLRHYYNWLTRQRY-NH2 [Compound 107, Y-Aib-E-G-T-F-T-S-D-Y-S-I-Aib-L-E-K-Q-A-Q-Aib-A-F-V-E-W-L-I-K(1,3)-GGPSSGLSLRHYYNWLTRQRY-NH2.C20DA-gGlu-gGlu-gGlu-gGlu-gGlu-gGlu-eLys(1,2)]”, the pEC50 in experiment [1] (setting [4]) is 9.89; in experiment [2] (setting [5]), 9.57; in experiment [3] (setting [7]) it was 7.78; in experiment [3] (setting [8]), 7.23.

As for “H-Y[Aib]EGTFTSDYSI[Aib]LEKQAQ[Aib]AFVEWLIK([εLys-γGlu-γGlu-γGlu-γGlu-γGlu-γGlu-C20 diacid])GGPSSGQS[Aib]RHYYNWLTRQRY-NH2 [Compound 44, Y-Aib-E-G-T-F-T-S-D-Y-S-I-Aib-L-E-K-Q-A-Q-Aib-A-F-V-E-W-L-I-K(1,3)-G-G-P-S-S-G-Q-S-Aib-R-H-Y-Y-N-W-L-T-R-Q-R-Y-NH2.C20DA-gGlu-gGlu-gGlu-gGlu-gGlu-gGlu-eLys(1,2)]”, the pEC50 in experiment [1] (setting [4]) is 10.15; in experiment [1] (setting [9]), 8.67; in experiment [2] (setting [5]), 10.30; in experiment [2] (setting [6]), 8.94; in experiment [3] (setting [8]), 7.61.

Consider “H-Y[Aib]EGTFTSDYSI[Aib]LEKQAQ[Aib]AFVEWLIK([εLys-γGlu-γGlu-γGlu-γGlu-γGlu-γGlu-C20 diacid])GGPSSGVSLRHYYNWLTRQRY-NH2 [Compound 96, Y-Aib-E-G-T-F-T-S-D-Y-S-I-Aib-L-E-K-Q-A-Q-Aib-A-F-V-E-W-L-I-K(1,3)-GGPSSGVSLRHYYNWLTRQRY-NH2.C20DA-gGlu-gGlu-gGlu-gGlu-gGlu-gGlu-eLys(1,2)]”, for which the pEC50 is 9.85 in experiment [1] (setting [4]); 8.67 in experiment [1] (setting [9]); 9.72 in experiment [2] (setting [5]); 8.97 in experiment [2] (setting [6]); 7.35 in experiment [3] (setting [8]).

Regarding “H-Y[Aib]EGTFTSDYSI[Aib]LEKQAQ[Aib]AFVEWLIK([εLys-γGlu-γGlu-γGlu-γGlu-γGlu-γGlu-C20 diacid])GGPSSGVS[Aib]RHYYNWLTRQRY-NH2 [Compound 38, Y-Aib-E-G-T-F-T-S-D-Y-S-I-Aib-L-E-K-Q-A-Q-Aib-A-F-V-E-W-L-I-K(1,3)-G-G-P-S-S-G-V-S-Aib-R-H-Y-Y-N-W-L-T-R-Q-R-Y-NH2.C20DA-gGlu-gGlu-gGlu-gGlu-gGlu-gGlu-eLys(1,2)]”, the pEC50 was 10.22 in experiment [1] (setting [4]), 9.15 in experiment [2] (setting [6]) and 7.75 in experiment [3] (setting [8]).
